Read-outs that look alike come from different tables or passages of the source. Starred links: 1 amine or outer side, 2 acyl side, 3 side chain; linkers in the order of their positions; H or OH if unused. Non-standard residues stand in square brackets, D forms with d. Residues, ends and D or L forms follow the SMILES beside them. Groups on a side chain read outwards from the residue. *: point of attachment. C20 diacid = O=C(O)CCCCCCCCCCCCCCCCCCC(=O)*; Pro(4S-NH2) = N[C@@H]1CN[C@H](C(=O)O)C1; γGlu = O=C(O)[C@H](CCC(=O)[*:2])N[*:1]; Nle = CCCC[C@H](N)C(=O)O; AEEA = NCCOCCOCC(=O)O Bounds are passed on as bounds.

One assay has as its target T1, hCRHR2 (Homo sapiens, UniProt Q13324).
T1 sequence (Q13324 1-411): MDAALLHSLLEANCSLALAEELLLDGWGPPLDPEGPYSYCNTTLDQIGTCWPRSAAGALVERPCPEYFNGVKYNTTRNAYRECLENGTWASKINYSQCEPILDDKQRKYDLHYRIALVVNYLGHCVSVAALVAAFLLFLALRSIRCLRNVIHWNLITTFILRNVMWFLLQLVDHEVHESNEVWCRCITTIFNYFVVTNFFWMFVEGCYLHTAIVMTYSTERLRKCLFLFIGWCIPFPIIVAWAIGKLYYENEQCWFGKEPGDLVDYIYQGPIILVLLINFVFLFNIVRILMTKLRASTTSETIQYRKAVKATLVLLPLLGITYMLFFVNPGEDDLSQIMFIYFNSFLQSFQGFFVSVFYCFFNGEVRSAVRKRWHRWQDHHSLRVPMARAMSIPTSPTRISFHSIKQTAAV
The assay is described as follows: HTRF cAMP assay, determination of hCRHR2 potency (peptide libraries 5 conc., purified peptides 11 conc.). It counts as cell-based. Put shortly: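 Read-out was HTRF competitive cAMP detection (d2-labelled cAMP, cryptate-labelled antibody) in suspended, freshly thawed CHO-K1 cells stably carrying human CRHR2.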
(In general: Time-resolved FRET reads energy transfer from a long-lived donor to a nearby acceptor.)

The target in another assay is T2, hCRHR1 (Homo sapiens, UniProt P34998).
T2 sequence (P34998 24-415): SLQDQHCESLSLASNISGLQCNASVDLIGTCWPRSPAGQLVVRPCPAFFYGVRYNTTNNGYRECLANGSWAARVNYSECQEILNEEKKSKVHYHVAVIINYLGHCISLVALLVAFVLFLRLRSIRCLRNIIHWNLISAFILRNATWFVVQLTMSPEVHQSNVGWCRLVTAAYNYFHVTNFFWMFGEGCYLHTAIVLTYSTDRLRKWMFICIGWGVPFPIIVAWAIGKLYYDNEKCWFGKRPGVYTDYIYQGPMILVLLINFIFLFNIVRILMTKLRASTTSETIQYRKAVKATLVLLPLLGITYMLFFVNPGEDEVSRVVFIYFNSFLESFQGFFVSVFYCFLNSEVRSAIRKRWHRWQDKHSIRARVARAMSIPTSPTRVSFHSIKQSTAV
The assay can be described thus: HTRF cAMP assay, determination of hCRHR1 potency (peptide libraries 5 conc., purified peptides 11 conc.). It counts as cell-based. Put shortly: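 Cellular cAMP was read by time-resolved FRET between d2-labelled cAMP and cryptate anti-cAMP antibody. The cells were freshly thawed suspension CHO-K1 cells stably expressing human CRHR1.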

Where [1] appears, read: library peptides, matched molecular pairs L vs Nle in position X^38, read-out: Potency hCRHR2 pEC50 (converted).
Where [2] appears, read: library peptides, matched molecular pairs L vs Nle in position X^38, read-out: Potency hCRHR1 pEC50 (converted).
The mark [3] stands for this setting: Table 3, matched molecular pairs X^38 L vs Nle, peptide library of Example 4, read-out: hCRHR2 pEC50 (converted).
Setting [4] is: Table 3, matched molecular pairs X^38 L vs Nle, peptide library of Example 4, read-out: hCRHR1 pEC50 (converted).

With `CCCC[C@H](NC(=O)[C@@H](NC(=O)[C@H](CCC(=O)O)NC(=O)[C@H](C)NC(=O)[C@H](CC(N)=O)NC(=O)[C@@H](NC(=O)[C@H](CCCCNC(=O)COCCOCCNC(=O)COCCOCCNC(=O)CC[C@H](NC(=O)CC[C@H](NC(=O)CCCCCCCCCCCCCCCCCCC(=O)O)C(=O)O)C(=O)O)NC(=O)[C@H](C)NC(=O)[C@H](CCC(N)=O)NC(=O)[C@H](CCC(=O)O)NC(=O)[C@H](CCCNC(=N)N)NC(=O)[C@H](C)NC(=O)[C@H](C)NC(=O)[C@H](CCCNC(=N)N)NC(=O)[C@H](C)NC(=O)[C@H](CCCNC(=N)N)NC(=O)[C@H](C)NC(=O)[C@H](CCC(N)=O)NC(=O)[C@H](CO)NC(=O)[C@H](CC(C)C)NC(=O)[C@H](CC(C)C)NC(=O)[C@@H](NC(=O)[C@H](CCC(N)=O)NC(=O)[C@H](CC(C)C)NC(=O)[C@H](CC(C)C)NC(=O)CNC(=O)[C@@H](NC(=O)[C@@H]1CCCN1C(=O)[C@@H](NC(=O)[C@H](CC(=O)O)NC(=O)[C@H](CC(C)C)NC(=O)[C@H](CO)NC(=O)[C@H](CC(C)C)NC(=O)[C@@H](NC(=O)[C@@H](N)[C@@H](C)CC)C(C)C)C(C)C)[C@@H](C)CC)[C@@H](C)CC)[C@@H](C)O)[C@@H](C)CC)C(=O)N[C@@H](C)C(=O)N[C@@H](CCC(=O)O)C(=O)N[C@H](C(N)=O)[C@@H](C)CC` [compound 89] (H-IVLSLDVPIGLLQILLSQARARAAREQAK([AEEA-AEEA-γGlu-γGlu-C20 diacid])TNAEI[Nle]AEI-NH2), the “Selectivity ratio (hCRHR1/ hCRHR2)” value at hCRHR2 (Table 5) was over 9091. The EC50 on hCRHR2 (Table 5, purified peptides, read-out: hCRHR2 EC50) was 0.55 nM; at hCRHR2 (setting [1]), 0.398 nM; at hCRHR1 (Table 5, purified peptides, read-out: hCRHR1 EC50), over 5 µM; on hCRHR1 (setting [2]) it was 398 µM.

For `CC[C@H](C)[C@H](N)C(=O)N[C@H](C(=O)N[C@@H](CC(C)C)C(=O)N[C@@H](CO)C(=O)N[C@@H](CC(C)C)C(=O)N[C@@H](CC(=O)O)C(=O)N[C@H](C(=O)N1CCC[C@H]1C(=O)N[C@H](C(=O)NCC(=O)N[C@@H](CC(C)C)C(=O)N[C@@H](CC(C)C)C(=O)N[C@@H](CCC(N)=O)C(=O)N[C@H](C(=O)N[C@@H](CC(C)C)C(=O)N[C@@H](CC(C)C)C(=O)N[C@@H](CCC(=O)O)C(=O)N[C@@H](CCC(N)=O)C(=O)N[C@@H](C)C(=O)N[C@@H](CCCNC(=N)N)C(=O)N[C@@H](C)C(=O)N[C@@H](CCC(=O)O)C(=O)N[C@@H](CO)C(=O)N[C@@H](C)C(=O)N[C@@H](CCCNC(=N)N)C(=O)N[C@@H](CCC(=O)O)C(=O)N[C@@H](CCCNC(=N)N)C(=O)N[C@@H](C)C(=O)N[C@@H](CCCCNC(=O)COCCOCCNC(=O)COCCOCCNC(=O)CC[C@H](NC(=O)CC[C@H](NC(=O)CCCCCCCCCCCCCCCCCCC(=O)O)C(=O)O)C(=O)O)C(=O)N[C@H](C(=O)N[C@@H](CC(N)=O)C(=O)N[C@@H](C)C(=O)N[C@@H](CCC(=O)O)C(=O)N[C@H](C(=O)N[C@@H](CC(C)C)C(=O)N[C@@H](C)C(=O)N[C@@H](CCC(=O)O)C(=O)N[C@H](C(N)=O)[C@@H](C)CC)[C@@H](C)CC)[C@@H](C)O)[C@@H](C)CC)[C@@H](C)CC)C(C)C)C(C)C` [SEQ ID NO: 21] (H-IVLSLDVPIGLLQILLEQARAESARERAK([AEEA-AEEA-γGlu-γGlu-C20 diacid])TNAEILAEI-NH2), the EC50 at hCRHR2 (setting [3]) is 0.794 nM; at hCRHR1 (setting [4]) it was 63.1 µM.

Regarding `CC[C@H](C)[C@H](N)C(=O)N[C@H](C(=O)N[C@@H](CC(C)C)C(=O)N[C@@H](CO)C(=O)N[C@@H](CC(C)C)C(=O)N[C@@H](CC(=O)O)C(=O)N[C@H](C(=O)N1CCC[C@H]1C(=O)N[C@H](C(=O)NCC(=O)N[C@@H](CC(C)C)C(=O)N[C@@H](CC(C)C)C(=O)N[C@@H](CCC(N)=O)C(=O)N[C@H](C(=O)N[C@@H](CC(C)C)C(=O)N[C@@H](CC(C)C)C(=O)N[C@@H](CCC(=O)O)C(=O)N[C@@H](CCC(N)=O)C(=O)N[C@@H](C)C(=O)N[C@@H](CCCNC(=N)N)C(=O)N[C@@H](C)C(=O)N[C@@H](CCC(=O)O)C(=O)N[C@@H](C)C(=O)N[C@@H](C)C(=O)N[C@@H](CCCNC(=N)N)C(=O)N[C@@H](CCC(=O)O)C(=O)N[C@@H](CCC(N)=O)C(=O)N[C@@H](C)C(=O)N[C@@H](CCCCNC(=O)COCCOCCNC(=O)COCCOCCNC(=O)CC[C@H](NC(=O)CC[C@H](NC(=O)CCCCCCCCCCCCCCCCCCC(=O)O)C(=O)O)C(=O)O)C(=O)N[C@H](C(=O)N[C@@H](CC(N)=O)C(=O)N[C@@H](C)C(=O)N[C@@H](CCC(=O)O)C(=O)N[C@H](C(=O)N[C@@H](CC(C)C)C(=O)N[C@@H](C)C(=O)N[C@@H](CCC(=O)O)C(=O)N[C@H](C(N)=O)C(C)C)[C@@H](C)CC)[C@@H](C)O)[C@@H](C)CC)[C@@H](C)CC)C(C)C)C(C)C` [SEQ ID NO: 25] (H-IVLSLDVPIGLLQILLEQARAEAAREQAK([AEEA-AEEA-γGlu-γGlu-C20 diacid])TNAEILAEV-NH2), the EC50 on hCRHR2 (setting [3]) is 0.794 nM; on hCRHR1 (setting [4]), 6.31 µM.

Regarding `CCCC[C@H](NC(=O)[C@@H](NC(=O)[C@H](CCC(=O)O)NC(=O)[C@H](C)NC(=O)[C@H](CC(N)=O)NC(=O)[C@@H](NC(=O)[C@H](CCCCNC(=O)COCCOCCNC(=O)COCCOCCNC(=O)CC[C@H](NC(=O)CC[C@H](NC(=O)CCCCCCCCCCCCCCCCCCC(=O)O)C(=O)O)C(=O)O)NC(=O)[C@H](C)NC(=O)[C@H](CCC(N)=O)NC(=O)[C@H](CCC(=O)O)NC(=O)[C@H](CCCNC(=N)N)NC(=O)[C@H](C)NC(=O)[C@@H](NC(=O)[C@H](CCCNC(=N)N)NC(=O)[C@H](C)NC(=O)[C@H](CCCNC(=N)N)NC(=O)[C@H](C)NC(=O)[C@H](CCC(N)=O)NC(=O)[C@H](CCC(=O)O)NC(=O)[C@H](CC(C)C)NC(=O)[C@H](CC(C)C)NC(=O)[C@@H](NC(=O)[C@H](CCC(N)=O)NC(=O)[C@H](CC(C)C)NC(=O)[C@H](CC(C)C)NC(=O)CNC(=O)[C@@H](NC(=O)[C@@H]1C[C@H](N)CN1C(=O)[C@@H](NC(=O)[C@H](CC(=O)O)NC(=O)[C@H](CC(C)C)NC(=O)[C@H](CO)NC(=O)[C@H](CC(C)C)NC(=O)[C@@H](NC(=O)[C@@H](N)[C@@H](C)CC)C(C)C)C(C)C)[C@@H](C)CC)[C@@H](C)CC)C(C)C)[C@@H](C)O)[C@@H](C)CC)C(=O)N[C@@H](C)C(=O)N[C@@H](CCC(=O)O)C(=O)N[C@H](C(N)=O)C(C)C` [compound 77] (H-IVLSLDV[Pro(4S-NH2)]IGLLQILLEQARARVAREQAK([AEEA-AEEA-γGlu-γGlu-C20 diacid])TNAEI[Nle]AEV-NH2), the EC50 is 0.501 nM on hCRHR2 (setting [1]) and 0.00316 µM on hCRHR1 (setting [2]).

Take `CC[C@H](C)[C@H](N)C(=O)N[C@H](C(=O)N[C@@H](CC(C)C)C(=O)N[C@@H](CO)C(=O)N[C@@H](CC(C)C)C(=O)N[C@@H](CC(=O)O)C(=O)N[C@H](C(=O)N1CCC[C@H]1C(=O)N[C@H](C(=O)NCC(=O)N[C@@H](CC(C)C)C(=O)N[C@@H](CC(C)C)C(=O)N[C@@H](CCC(N)=O)C(=O)N[C@H](C(=O)N[C@@H](CC(C)C)C(=O)N[C@@H](CC(C)C)C(=O)N[C@@H](CCC(=O)O)C(=O)N[C@@H](CCC(N)=O)C(=O)N[C@@H](C)C(=O)N[C@@H](CCCNC(=N)N)C(=O)N[C@@H](C)C(=O)N[C@@H](CCCNC(=N)N)C(=O)N[C@@H](CCC(N)=O)C(=O)N[C@@H](C)C(=O)N[C@@H](CCCNC(=N)N)C(=O)N[C@@H](CCC(=O)O)C(=O)N[C@@H](CCC(N)=O)C(=O)N[C@@H](C)C(=O)N[C@@H](CCCCNC(=O)COCCOCCNC(=O)COCCOCCNC(=O)CC[C@H](NC(=O)CC[C@H](NC(=O)CCCCCCCCCCCCCCCCCCC(=O)O)C(=O)O)C(=O)O)C(=O)N[C@H](C(=O)N[C@@H](CC(N)=O)C(=O)N[C@@H](C)C(=O)N[C@@H](CCC(=O)O)C(=O)N[C@H](C(=O)N[C@@H](CC(C)C)C(=O)N[C@@H](C)C(=O)N[C@@H](CCC(=O)O)C(=O)N[C@H](C(N)=O)C(C)C)[C@@H](C)CC)[C@@H](C)O)[C@@H](C)CC)[C@@H](C)CC)C(C)C)C(C)C` [compound 52] (H-IVLSLDVPIGLLQILLEQARARQAREQAK([AEEA-AEEA-γGlu-γGlu-C20 diacid])TNAEILAEV-NH2): the values for the EC50 at hCRHR2 (setting [1]) and on hCRHR1 (setting [2]) were 0.631 nM and 1.58 µM, respectively.

Source of the values: patent EP4810052A2, “HCRHR2 SELECTIVE POLYPEPTIDES” (Gubra A/S, priority 2023, dated 2026).
